Laboratory results as given in paper PMC6158578, “Optimization and Lead Selection of Benzothiazole Amide Analogs Toward a Novel Antimycobacterial Agent” (Frontiers in Microbiology, 2018).
≈ marks a conversion by molar mass, not a printed value.

Tests used:
Assay in all cases: microbe, parasite or virus in culture
Format in all cases: cell-based, M. tuberculosis
Settings in all cases: Mycobacterium tuberculosis
[1] = system: Fluoroquinolone-resistant Mtb
[2] = system: Isoniazid-resistant Mtb strain 1
[3] = system: Isoniazid-resistant Mtb strain 2
[4] = system: Rifampin-resistant Mtb strain 1
[5] = system: Rifampin-resistant Mtb strain 2

## CC12CC3CC(C)(C1)CC(C(=O)Nc1nc4ccc(OC(F)(F)F)cc4s1)(C3)C2 [CRS400226]
[1]
  IC90: 3.7 µg/mL (≈ 8.72 µM)
[2]
  IC90: 3.9 µg/mL (≈ 9.19 µM)
[3]
  IC90: 4.2 µg/mL (≈ 9.89 µM)
[4]
  IC90: 3.9 µg/mL (≈ 9.19 µM)
[5]
  IC90: 4.7 µg/mL (≈ 11.1 µM)
